{"source": "patent US20250304630A1", "about": "“POLYPEPTIDES HAVING OSMOPROTECTIVE ACTIVITY, COMPOSITIONS THEREOF AND USES THEREOF” (DELAVIE SCIENCES, LLC, priority 2022, published 2025)", "key": {"[1]": {"assay": "Osmotic stress assay: keratinocytes pretreated, exposed to hypertonic NaCl media, viability by MTT", "type": "cell-based, human", "conditions": "human, human adult epidermal keratinocytes, then 24 h with 0 mM added NaCl, MTT, % of untreated 0 mM NaCl control, mean +/- SD, read-out: Cell Viability", "experimental": "(§1) This assay procedure was used to screen the recombinantly produced HSP for its ability to protect against osmotic stress, using cultured human keratinocytes as the testing model. The assay used changes in cell viability as the endpoint for measuring the protective effect.\n(§2) For this study, human keratinocytes were pretreated for 24 hours with either HSP, a mild hypertonic solution of sorbitol (positive control), or left untreated (negative control). After the pretreatment, the cell culture media was replaced with media supplemented with NaCl at progressively increasing hypertonic concentrations. The cells were then incubated again for 24 hours. After the second incubation, cell viability was determined using an MTT assay.\n(§3) The MTT assay is a colorimetric analysis of the metabolic activity of the cell, which is a reflection of cell viability. Viable cells can take up MTT, which is then reduced by mitochondria, resulting in the formation of insoluble purple formazin crystals. These crystals are then extracted from the cells with isopropanol and quantified spectrophotometrically. The intensity of the purple color is directly proportional to the number of viable cells.\n(§4) Human adult epidermal keratinocytes were grown using EpiLife Media (60 µM calcium) supplemented with 0.2% v/v bovine pituitary extract, 1 μg/ml recombinant human insulin-like growth factor-1, 0.18 μg/ml hydrocortisone, 5 μg/ml bovine transferrin, 0.2 ng/ml human epidermal growth factor. When a sufficient number of cells had been grown, they were transferred to 96-well plates and cultured for a minimum of 24 hours to allow the cells to adhere to the well plates. The cells were then used when they were fully confluent.\n(§5) The test materials and the sorbitol positive controls were prepared in fully supplemented EpiLife media. Supplemented EpiLife media alone served as the untreated control. These solutions were applied to the keratinocytes in the 96-well plates, after which the plates were incubated for 24 hours at 37±2° C. and 5±1% CO2.\n(§6) After the pretreatment incubation, the cell culture media was removed from both of the 96-well plates and replaced with supplemented EpiLife media which had progressively increasing concentrations of additional NaCl added (0, 75, 100, 125 and 150 mM) to generate a series of increasingly hypertonic solutions. After the addition of the media/NaCl, the 96-well plates were incubated for an additional 24 hours.\n(§7) After the second 24-hour incubation, the cell culture media was removed and the cells were washed once with phosphate buffered saline. After washing, 100 μl of keratinocyte cell culture media supplemented with MTT (0.5 mg/ml) was added to each well. The 96-well plates were returned to the incubator (37+2° C. and 5+1% CO2) for one hour. After the incubation the MTT solution was removed via aspiration and the cells were rinsed twice with phosphate buffered saline to remove any residual MTT on the outside of the cells and then 100 μl of isopropyl alcohol was added to the wells to extract the purple formazin crystals. The well plates were then read at 540 nm using isopropyl alcohol as a blank.\n(§8) The mean MTT absorbance value for the untreated control cells not exposed to any osmotic stress (0 mM NaCl) was calculated and used to represent 100% cell viability. The individual MTT values from the cells undergoing the various treatments were then divided by the mean value for the negative control cells and expressed as a percentage to determine the change in cell viability caused by each treatment."}, "human keratinocytes": {"test_system": "human keratinocytes", "assay": "Osmotic stress assay: keratinocytes pretreated, exposed to hypertonic NaCl media, viability by MTT", "type": "cell-based", "conditions": "for Cell Viability: MTT, % of untreated 0 mM NaCl control, mean +/- SD", "experimental": "as §1, §2, §3, §4, §5, §6, §7, §8"}, "[2]": {"assay": "ORAC assay, loss of FITC fluorescence with AAPH", "type": "biochemical", "experimental": "(§9) This assay procedure was used to screen materials for antioxidant properties using non-cell-based methods. Dilutions of HSP tested were 10%, 5%, 1%, 0.5%, 0.1%, 0.05%, and 0.01%.\n(§10) Fluorescein (FITC) is normally a highly fluorescent molecule, yet when fluorescein is oxidized by either peroxyl radicals or hydroxyl radicals, it loses its fluorescence. Thus, when FITC is incubated in the presence of 2,2′-azobis(2-amidino-propane) dihydrochloride (AAPH, a peroxyl radical generating compound), or a combination of hydrogen peroxide and cobalt (a hydroxyl radical generating system based on the Fenton-type reaction), there will be a time dependent loss of FITC fluorescence. However, if a material with antioxidant properties is present during the incubation, the loss of fluorescence will be delayed as some of the peroxyl or hydroxyl radicals react with the antioxidant material instead of the FITC. Under these conditions, the delay or prevention in fluorescence decay will be in proportion to the antioxidant capacity of the test material.\nFor the ORAC assay, the test materials were prepared in Assay Buffer at 10× their final desired concentrations. Trolox was used as the positive control for this assay. To start the assay, 20 μl of the test material or positive control were added to the wells of a 96-well plate. All of the samples were prepared in triplicate. Next, 160 μl of a 360 nM FITC solution was added to each well and the plate was incubated for 30 minutes in the dark. After this incubation, 20 μl of a 153 mM AAPH (peroxyl radical generator) was added to each well. The plate was mixed and then read using a Fluoroskan Ascent Fluorometer at 2.5-minute intervals for 60 minutes with an excitation wavelength of 480 nm and an emission wavelength of 518 nm.\n(§11) The loss of FITC fluorescence can be graphed by plotting fluorescence intensity vs time for each of the samples to generate a fluorescence decay curve. The area under this curve (AUC) then represents the extent of FITC fluorescence loss over the course of the assay, and this measurement is then used as an index for the effectiveness of the antioxidant samples. The AUC for a sample can be calculated using the following equation: […]\n(§12) Where RFUO is the initial fluorescence measurement of the sample at time 0, with each subsequent RFU measurement indicated by the respective increased numbers. The AUC measurements were then used to determine the percent inhibition for each concentration of the test material screened, followed by the determination of the IC50, the concentration of the material at which 50% of the FITC signal loss due to radical interaction is prevented."}, "[3]": {"assay": "HORAC assay (OxiSelect HORAC Assay), loss of FITC fluorescence", "type": "biochemical", "experimental": "as §9, §10\nThe HORAC assay was performed as specified by the manufacturer of the kit. For the assay, the test materials were prepared in Assay Buffer at 10× their final desired concentrations. Caffeic acid was used as the positive control for this assay. To start the assay, 20 μl of the test material or positive control were added to the wells of a 96-well plate. All of the samples were prepared in triplicate. Next, 140 μl of an FITC solution was added to each well and the plate was incubated for 30 minutes in the dark. After this incubation, 20 μl of a hydrogen peroxide solution (Hydroxyl Radical Initiator) was added to each well, followed by the addition of 20 μl of a cobalt solution (Fenton Reagent). The plate was mixed and then read using a Fluoroskan Ascent Fluorometer at 3-minute intervals for 60 minutes with an excitation wavelength of 480 nm and an emission wavelength of 518 nm.\nas §11, §12"}, "[4]": {"conditions": "concentration at which 50% of the FITC signal loss is prevented"}}, "note": "Marks after values point to notes of the source that are not given here.", "data": [{"molecule": "OC[C@@H](O)[C@@H](O)[C@H](O)[C@@H](O)CO", "note": "[Sorbitol, sorbitol, reference compound]", "values": [{"measurement": "viability at 24 h, 12.5 mM", "setting": "[1]; 24 h pretreatment with 12.5 mM Sorbitol", "result": 101, "unit": "%"}, {"measurement": "viability at 24 h, 25 mM", "setting": "[1]; 24 h pretreatment with 25 mM Sorbitol", "result": 122, "unit": "%"}, {"measurement": "Cell Viability", "setting": "human keratinocytes; 24 h pretreatment with 12.5 mM Sorbitol, then 24 h with 75 mM added NaCl", "result": "103.2 +/− 1.8%"}, {"measurement": "Cell Viability", "setting": "human keratinocytes; 24 h pretreatment with 12.5 mM Sorbitol, then 24 h with 100 mM added NaCl", "result": "98.3 +/− 6.0* %"}, {"measurement": "Cell Viability", "setting": "human keratinocytes; 24 h pretreatment with 12.5 mM Sorbitol, then 24 h with 125 mM added NaCl", "result": "73.2 +/− 13.3* %"}, {"measurement": "Cell Viability", "setting": "human keratinocytes; 24 h pretreatment with 12.5 mM Sorbitol, then 24 h with 150 mM added NaCl", "result": "24.1 +/− 9.6%"}, {"measurement": "Cell Viability", "setting": "human keratinocytes; 24 h pretreatment with 25 mM Sorbitol, then 24 h with 75 mM added NaCl", "result": "100.0 +/− 7.7%"}, {"measurement": "Cell Viability", "setting": "human keratinocytes; 24 h pretreatment with 25 mM Sorbitol, then 24 h with 100 mM added NaCl", "result": "93.9 +/− 2.8* %"}, {"measurement": "Cell Viability", "setting": "human keratinocytes; 24 h pretreatment with 25 mM Sorbitol, then 24 h with 125 mM added NaCl", "result": "69.5 +/− 9.7* %"}, {"measurement": "Cell Viability", "setting": "human keratinocytes; 24 h pretreatment with 25 mM Sorbitol, then 24 h with 150 mM added NaCl", "result": "29.5 +/− 5.6%"}, {"measurement": "cell viability versus untreated cell samples", "setting": "human keratinocytes; at both 100 mM and 125 mM NaCl", "result": "significantly greater than the untreated cell samples"}, {"measurement": "osmoprotective effect", "setting": "human keratinocytes; highest concentration of added NaCl (150 mM)", "result": "neither HSP nor sorbitol (positive control) showed a significant osmoprotective effect"}, {"measurement": "effect on the reduction in cell viability caused by the increase in hypertonicity", "setting": "human keratinocytes; increasing added NaCl, overall statement", "result": "slow the reduction in cell viability"}]}, {"molecule": "Cc1c(C)c2c(c(C)c1O)CCC(C)(C(=O)O)O2", "note": "(stereo not shown) [Trolox, reference compound]", "values": [{"measurement": "Percent Inhibition", "setting": "[2]; concentration 0.078125 ug/ml", "result": 30.79, "unit": "%"}, {"measurement": "Percent Inhibition", "setting": "[2]; concentration 0.15625 ug/ml", "result": 47.09, "unit": "%"}, {"measurement": "Percent Inhibition", "setting": "[2]; concentration 0.3125 ug/ml", "result": 68.77, "unit": "%"}, {"measurement": "Percent Inhibition", "setting": "[2]; concentration 0.625 ug/ml", "result": 83.84, "unit": "%"}, {"measurement": "Percent Inhibition", "setting": "[2]; concentration 1.25 ug/ml", "result": 84.06, "unit": "%"}, {"measurement": "Percent Inhibition", "setting": "[2]; concentration 2.5 ug/ml", "result": 87.4, "unit": "%"}, {"measurement": "Percent Inhibition", "setting": "[2]; concentration 5 ug/ml", "result": 90.3, "unit": "%"}, {"measurement": "IC50", "setting": "[2]; [4]", "result": "IC50: 0.42 ug/ml"}]}, {"molecule": "O=C(O)/C=C/c1ccc(O)c(O)c1", "note": "[Caffeic Acid, Caffeic acid, reference compound]", "values": [{"measurement": "Percent Inhibition", "setting": "[3]; concentration 0.625 ug/ml", "result": 8.85, "unit": "%"}, {"measurement": "Percent Inhibition", "setting": "[3]; concentration 1.25 ug/ml", "result": 14.56, "unit": "%"}, {"measurement": "Percent Inhibition", "setting": "[3]; concentration 2.5 ug/ml", "result": 56.30, "unit": "%"}, {"measurement": "Percent Inhibition", "setting": "[3]; concentration 5 ug/ml", "result": 68.86, "unit": "%"}, {"measurement": "Percent Inhibition", "setting": "[3]; concentration 10 ug/ml", "result": 60.03, "unit": "%"}, {"measurement": "Percent Inhibition", "setting": "[3]; concentration 20 ug/ml", "result": 62.58, "unit": "%"}, {"measurement": "IC50", "setting": "[3]; [4]", "result": "IC50: 3.25 ug/ml"}]}]}
